# Activity calls are given as the source filed them. The rule behind the calls is not given here.
# Experiments:
# Type in all cases: functional, cell-based
# HL-60 [1] = assay: Induction of apoptosis in human HL60 cells assessed as reduction of cell viability at up to 30 uM after 4 hrs by alamar blue assay
# HL-60 [2] = assay: Potentiation of FAS-ligand-induced apoptosis in human HL60 cells at 30 uM
# HL-60 [3] = assay: Induction of apoptosis in human HL60 cells at 0.3 uM in presence of caspase 9 inhibitor […]
# HL-60 [4] = assay: Induction of apoptosis in human HL60 cells assessed as DNA ladder formation at 30 uM after 4 hrs by DNA electrophoresis
# HL-60 [5] = assay: Induction of apoptosis in human HL60 cells assessed as increase of cellular ROS level
# HL-60 [6] = assay: Induction of apoptosis in human HL60 cells assessed as nuclear fragmentation at 0.3 uM after 4 hrs using DAPI/PI by confocal laser microscopy analysis
# HL-60 [7] = assay: Induction of apoptosis in human HL60 cells at 0.3 uM in presence of caspase 8 inhibitor Z-IETD
# HL-60 [8] = assay: Induction of apoptosis in human HL60 cells assessed as activation of caspase 3 at 0.3 uM after 2 hrs by Western blot analysis
# HL-60 [9] = assay: Induction of apoptosis in human HL60 cells assessed as DNA ladder formation at 0.3 uM after 4 hrs by DNA electrophoresis
# HL-60 [10] = assay: Induction of apoptosis in human HL60 cells assessed as activation of caspase 3 at 0.3 uM after 2 hrs by Western blot analysis in presence of caspase 9 inhibitor […]
# HL-60 [11] = assay: Induction of apoptosis in human HL60 cells assessed as activation of caspase 3 at 0.3 uM after 2 hrs by Western blot analysis in presence of caspase inhibitor Z-VAD
# HL-60 [12] = assay: Potentiation of TNF-alpha-ligand-induced apoptosis in human HL60 cells at 30 uM
# HL-60 [13] = assay: Induction of apoptosis in human HL60 cells assessed as activation of caspase 3 at 0.3 uM after 2 hrs by Western blot analysis in presence of caspase 8 inhibitor Z-IETD
# HL-60 [14] = assay: Induction of apoptosis in human HL60 cells assessed as necrotic cell death at 30 uM after 4 hrs using DAPI/PI by confocal laser microscopy analysis
# HL-60 [15] = assay: Induction of apoptosis in human HL60 cells assessed as reduction of cell viability after 4 hrs by alamar blue assay
SMILES,Activity (HL-60 [1]),Activity (HL-60 [2]),Activity (HL-60 [3]),Activity (HL-60 [4]),Activity (HL-60 [5]),Activity (HL-60 [6]),Activity (HL-60 [7]),Activity (HL-60 [8]),Activity (HL-60 [9]),Activity (HL-60 [10]),Activity (HL-60 [11]),Activity (HL-60 [12]),Activity (HL-60 [13]),Activity (HL-60 [14]),Activity (HL-60 [15])
CN1C(=O)[C@H]2C[C@]3([C@]45C[C@@H]6C(=O)N(C)[C@H](CO)C(=O)N6[C@H]4Nc4ccccc45)c4ccccc4N[C@@H]3N2C(=O)[C@H]1CO,inactive,–,–,–,–,–,–,–,–,–,–,–,–,–,–
CN1C(=O)[C@]23C[C@@]4([C@@]56C[C@]78SS[C@](CO)(C(=O)N7[C@@H]5Nc5ccccc56)N(C)C8=O)c5ccccc5N[C@H]4N2C(=O)[C@@]1(CO)SS3,–,inactive,Active,inactive,inactive,Active,inactive,Active,Active,Active,inactive,inactive,inactive,Active,–
CN1C(=O)[C@@]23C[C@]4([C@]56C[C@@]78SS[C@@](CO)(C(=O)N7[C@H]5Nc5ccccc56)N(C)C8=O)c5ccccc5N[C@@H]4N2C(=O)[C@]1(CO)SS3,–,–,–,–,inactive,Active,–,Active,inactive,–,–,–,–,Active,Dose-dependent effect

# Source: ChEMBL document CHEMBL1221299, “Unnatural enantiomer of chaetocin shows strong apoptosis-inducing activity through caspase-8/caspase-3 activation” (Bioorg Med Chem Lett, 2010)
